Data on one compound can be found in patent publication US7049311B1, “Pyrrolbenzodiazepines” (Spirogen Limited, priority 1998, dated 2006).

The IC50 is the concentration at which inhibition is half-maximal.

Where two headings read alike, the source gives them in different places.

Data set [1] has as its system HCC-2998. Nature of the data set: NCI in vitro cytotoxicity screen. As to conditions: Homo sapiens, HCC 2998, 48 h, read-out: LC50. In kind it is cell-based. In a few lines:
(§1)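 Cells plated at 5000-40,000 per well, preincubated 24 h at 37° C., then exposed continuously for 48 h to five 10-fold dilutions (10^−4 to 10^−8 […]) in 5% CO2. Viability read by sulphorhodamine B protein staining (optical density); LC50 taken as the dose killing half the cells.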

The test system of data set [2] is MALME-3M. Nature of the data set: NCI in vitro cytotoxicity screen. In kind it is cell-based. In a few lines: as §1
In data set [3] the test system is NCI-H460. The experiment in a line: NCI in vitro cytotoxicity screen. The conditions noted are these: Homo sapiens; NCI-H460 (Lung), 48 hour exposure, SRB assay; read-out: LC50 (the source's name). Format: cell-based. In a few lines: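 Cytotoxicity is assessed by continuous 48-hour treatment across five tenfold concentrations spanning 10^−8 to 10^−4 […], with SRB protein assay estimating cell growth and viability. Values are reported as LC50.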
In general terms: The SRB assay estimates cell density from bound dye.

Data set [4] deals with SNB-75. Nature of the data set: NCI in vitro cytotoxicity screen. Format: cell-based. As to conditions: Homo sapiens, SNB-75, 48 h, read-out: LC50. In short, it runs like this:
as §1

Data set [5] relates to UACC-62. The experiment in a line: NCI in vitro cytotoxicity screen. Format: cell-based. In short, it runs like this:
as §1

The subject of data set [6] is calf thymus DNA. The experiment in a line: DNA helix melting temperature assay. In kind it is binding. The procedure: The first assay, which is described in G. B. Jones, et al., Anti-Cancer Drug Des., 1990, 5, 249, which is incorporated herein by reference, determines the effect of the test compound on the helix melting temperature of DNA. This assay is designed to give an indication of the strength and extent of cross-linking of the DNA strands by the test compound (i.e. a measure of the stabilisation of the DNA upon ligand binding).
The melting temperature was determined for a 1:5 molar ratio of [ligand] [DNA], where the calf thymus DNA concentration is […] in aqueous sodium phosphate buffer (10 mM sodium phosphate+1 mM EDTA, pH 7.00±0.01). For calf thymus DNA at pH 7.00±0.01, the melting temperature is 67.83±0.06° C. (mean value from 30 separate determinations).

Data set [7] relates to A2780cisR. Nature of the data set: Cytotoxicity in cisplatin-resistant A2780cisR (Example 9). In kind it is cell-based, human. The conditions noted are these: for IC50: Homo sapiens, A2780cisR, 96 h. The procedure:
Relative to the parental line, the A2780cisR subline is known to have elevated GSH levels, an increased level of repair of DNA-cisplatin adducts, and a decreased ability to uptake cisplatin (M. Smellie, et al., Br. J. Cancer, 1994, 70, 48).
The results, which were obtained by incubating the cells with the compounds for 96 hours at 37° C., and assessing the cell number using Sulforhodamine B, are presented in the table below: […]

Data set [8] deals with A2780cisR. The experiment in a line: Ovarian carcinoma cytotoxicity assay. In kind it is cell-based, human. The conditions noted are these: Homo sapiens, A2780cisR, 96 h, read-out: IC50 A2780cisR. In short, it runs like this:
(§2)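 Cells attached overnight, then read 96 hours later by sulphorhodamine B staining of TCA-fixed cells, with absorbance at 540 nm. IC50 taken from concentration versus % absorbance relative to untreated wells; cisR lines are cisplatin-resistant.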

Data set [9] relates to A2780. Nature of the data set: Ovarian carcinoma cytotoxicity assay. Format: cell-based, human. As to conditions: Homo sapiens, A2780, 96 h, read-out: IC50 A2780. In short, it runs like this: as §2
The subject of data set [10] is CH1cisR. The experiment in a line: Ovarian carcinoma cytotoxicity assay. Format: cell-based. As to conditions: Homo sapiens, CH1cisR, 96 h, read-out: IC50 CH1cisR. In a few lines: as §2
For data set [11], the system named is CH1. The experiment in a line: Ovarian carcinoma cytotoxicity assay. Format: cell-based. The conditions noted are these: Homo sapiens, CH1, 96 h, read-out: IC50 CH1. In a few lines: as §2
Data set [12] has as its system SKOV-3. Nature of the data set: Ovarian carcinoma cytotoxicity assay. In kind it is cell-based. As to conditions: Homo sapiens, SK-OV-3, 96 h, read-out: IC50 Skov3. In a few lines:
as §2

Turning to `C=C1C[C@H]2C=Nc3cc(OCCCOc4cc5c(cc4OC)C(=O)N4CC(=C)C[C@H]4C=N5)c(OC)cc3C(=O)N2C1` [UP2001 (80)], the CC50 in data set [1] was 99 nM; in data set [2] (Homo sapiens, Malme-3M, 48 h, read-out: LC50, MALME-3M (Melanoma), 48 hour exposure, SRB assay), 80 nM; in data set [2] (read-out: LC50, MALME-3M (Melanoma), 48 hour exposure, SRB assay), 73 nM; in [3], 2700 nM; in data set [4], 7500 nM; in data set [5] (Homo sapiens, UACC-62, 48 h, read-out: LC50, UACC-62 (Melanoma), 48 hour exposure, SRB assay), 70 nM. In addition, the CC50 in data set [5] (read-out: LC50, UACC-62 (Melanoma), 48 hour exposure, SRB assay) worked out at 77 nM. Also, in data set [6] ([PBD]:[DNA] ratio of 1:5, calf thymus DNA, pH 7.00, 0 h), the “Induced ΔTa after incubation at 37° C. for 0 h” value was 25.7 °C. Also, the “Induced ΔTa after incubation at 37° C. for 4 h” value in data set [6] ([PBD]:[DNA] ratio of 1:5, calf thymus DNA, pH 7.00, 4 h) came out at 31.9 °C. In addition, in data set [6] ([PBD]:[DNA] ratio of 1:5, calf thymus DNA, pH 7.00, 18 h), the “Induced ΔTa after incubation at 37° C. for 18 h” value worked out at 33.6 °C. Moreover, the “share of stabilising effect provided without prior incubation” value in data set [6] (calf thymus DNA melting) is 60-80%. Further, in [6] (on a concentration basis), the “fold more effective than DSB-120 (comparative ΔTm curves)” value is reported as not below 10 fold. Moreover, the “fold more potent than DSB-120” value in [7] (A2780cisR cell line) is ~9,000 fold. Also, the IC50 is 0.024 nM in data set [7] (read-out: IC50 A2780cisR); 0.024 nM in [7] (read-out: IC50 A2780cis^a); 0.024 nM in [8]; 0.023 nM in data set [9]; 0.6 nM in data set [10]; 0.12 nM in data set [11]. Also, the IC50 in data set [12] is 9.1 nM.
